# Results from patent US5891851A, “Antibiotic, feglymycin, processes for its preparation and its use” (Hoechst Aktiengesellschaft, priority 1996, dated 1999).
# *1 amine or outer side, *2 acyl side, *3 side chain or, on linkers, in order; H or OH if unused. Where a SMILES comes first, the peptide text is derived from it. [ ]: non-standard residue; d: D form. X1 = O=C(C(N[*:1])c1cc(O)cc(O)c1)[*:2]; Hpg = N[CH](C(=O)O)c1ccc(O)cc1
# Columns and labels:
# [1] = type: cell-based
# Source text: The tolerability of feglymycin in both the active concentration and even in higher concetrations is good. Cytotoxic effects or other toxicities were not observed.
# [2] = type: physicochemical
# Source text: Stable in neutral and mildly alkaline medium, but unstable in strongly acidic or strongly alkaline solutions.
# [3] = test system: human immunodeficiency viruses; type: cell-based, human immunodeficiency virus
# Method: The IC50 is less than 7 μg per ml. The inhibitory activity can be measured by light-microscopic observation of HIV-typical syncytia. In this connection, the reduction in syncytia formation is a measure of the activity of the agent, in this case of feglymycin. It is also possible, however, to determine the activity of feglymycin by measuring the amount of HIV particles in cell culture supernatants, e.g. by means of commercially available p24 antigen tests.
smiles,measurement,setting,value
CC(C)C(NC(=O)C(NC(=O)C(N)c1ccc(O)cc1)c1cc(O)cc(O)c1)C(=O)NC(C(=O)NC(C(=O)NC(C(=O)NC(C(=O)NC(C(=O)NC(C(=O)NC(C(=O)NC(C(=O)NC(Cc1ccccc1)C(=O)NC(CC(=O)O)C(=O)O)c1ccc(O)cc1)c1cc(O)cc(O)c1)C(C)C)c1cc(O)cc(O)c1)c1ccc(O)cc1)c1cc(O)cc(O)c1)c1ccc(O)cc1)c1cc(O)cc(O)c1 (stereo not drawn) [feglymycin] (H-[Hpg][X1]V[X1][Hpg][X1][Hpg][X1]V[X1][Hpg]FD-OH; configuration not given here),Cytotoxic effects or other toxicities,[1],not observed
same,Solubility,[2],"soluble in methanol, acetonitrile and water"
same,"IC50, inhibitory activity on human immunodeficiency viruses",[3],less than 7 μg per ml
